Read-outs that look alike come from different tables or passages of the source. *1 amine or outer side, *2 acyl side, *3 side chain or, on linkers, in order; H or OH if unused. Bridges are numbered along the chain shown (N, C = ends). Where no end group is shown, it is not given here. [ ]: non-standard residue; d: D form. The star is where a group is joined. (miniPEG)2 = linker of two miniPEG units, each HN-CH2CH2-O-CH2CH2-O-CH2-C(=O), O=C(COCCOCCN[*:1])NCCOCCOCC(=O)[*:2]; Myristoyl = CCCCCCCCCCCCCC(=O)*; Aun = NCCCCCCCCCCC(=O)O; Ahx = NCCCCCC(=O)O
How the values were obtained:
[1] = system: Staphylococcus aureus strain MZ100; assay: in vitro infection assay on titanium beads, colony counts; type: cell-based; settings: peptide 5 μM + vancomycin 100 μM
Description: To illustrate the antibacterial activity of the peptide compositions, an in vitro infection assay was performed. Briefly, a surface material was contacted with one of the peptide compositions such that the peptide binds to the surface material. The peptide composition can have glycopeptide antibiotic already bound thereto at the time of contacting the peptide with the surface material, or the glycopeptide antibiotic can be contacted with the peptide in a step subsequent to binding the peptide composition to the surface material. The surface material was washed to remove unbound glycopeptide antibiotic, and then contacted with bacterial cells (added from a culture in log phase growth) and incubated to promote bacterial growth. The surface material was washed, and any bacterial cells colonizing the surface material removed and plated to assess bacterial growth.
In one example, Staphylococcus aureus strain MZ100 was used as the representative bacterial cells. First, as a representative surface material, titanium beads were sterilized in acetone in a sonication bath, and then air dried in a sterile hood. The beads were individually placed in sterilized microfuge tubes (one bead per tube). […] The next day, the plates were examined for bacterial growth, and the number of bacterial colonies was quantified per plate.

vancomycin [2] = assay: competition on plates: immobilised biotinylated SEQ ID NO: 1 peptide, 20 nM biotinylated vancomycin, Lys-D-Ala-D-Ala titrated
[3] = binding assay: biotinylated synthetic peptide on streptavidin plate, titrated with biotinylated glycopeptide antibiotic
Description: A typical binding assay for glycopeptide antibiotic was performed according to the following procedure. Briefly, synthetic peptides comprising an amino acid sequence to be characterized for binding were biotinylated to facilitate immobilization on streptavidin-coated 96-well plates. The microtiter plates were coated with streptavidin by adding 50 μl of a 10 μg/ml streptavidin solution in 0.1M NaHCO3, and incubating the plates for at least 3 hours. The plate wells were blocked by adding 150 μl of a 1% BSA solution in 0.1 NaHCO3 with incubation for at least 2 hours, and the plates were stored at 4° C. until needed. Before use, the streptavidin plates were washed extensively in buffer-T. Added per well was peptide (100 μl 0.1 μM peptide in buffer-T), and then incubated for 30 minutes at room temperature with shaking. 200 μl of 0.5 mM biotin in buffer-T was added to block the remaining streptavidin sites, and plates were incubated for 15 minutes at room temperature. Plates were then washed with buffer-T to remove the excess biotin and peptide. Serial dilutions of biotinylated glycopeptide antibiotic in buffer-T were added (100 μl) to each well, representing a range of concentrations between 100 pM and 100 μM. Plates were incubated for 30 minutes at room temperature with shaking prior to washing several times with buffer-T. Glycopeptide antibiotic was then detected by adding 100 μl of a diluted streptavidin-alkaline phosphatase conjugate to each well and incubated at room temperature for 30 minutes. Excess conjugate was removed by repeated washes with buffer-T, and the amount of alkaline phosphatase remaining in the well was detected using a pNPP (para-nitrophenylphosphate) colorimetric enzymatic assay. The relative amount of glycopeptide antibiotic captured by the peptides was determined by measuring the absorbance at 405 nm of the colored product of the alkaline phosphatase reaction. The EC50 was determined for each peptide relative to the binding affinity for the glycopeptide antibiotic used in the assay, as shown in Table 1 (with vancomycin as a representative glycopeptide antibiotic).
A typical binding assay for glycopeptide antibiotic was performed according to the following procedure. The concentrations of the alkaline-phosphatase linked variant peptides were normalized to equal levels based on the alkaline-phosphatase activity as determined in a kinetic assay with the alkaline-phosphatase specific chromogenic substrate p-nitrophenyl phosphate (p-NPP). A streptavidin coated microtiter plate was coated with biotinylated vancomycin. Serial dilutions of normalized alkaline-phosphatase linked peptides were allowed to bind to the immobilized vancomycin and detected by addition of the alkaline-phosphatase specific chromogenic substrate p-NPP. Relative affinity for peptide binding to the immobilized vancomycin was determined by measuring the absorbance at 405 nm of the colored product of the alkaline phosphatase reaction. […] EC50 values for the synthetic peptides binding to vancomycin were determined as described in Example 1 and are shown in Table 3. Preferred are peptides that bind to glycopeptide antibiotic with binding affinity of EC50 of less than or equal to about 1 μM, and more preferably, in the nanomolar range (e.g., <0.1 μM).

[4] = binding assay for gentamycin, similar format as for vancomycin; settings: aminoglycoside antibiotic
S. aureus MZ100 = assay: in vitro infection model on titanium pins, colony counts; type: cell-based; settings: composition 5 μM + vancomycin 100 μM, two hours incubation
Description: Acetone-sterilized titanium pins (1 mm diameter, 12 mm long) were first washed in PBS. These pins were then incubated in a solution (PBS) containing the respective composition (5 μM)+vancomycin (100 μM) for 15 minutes at room temperature, with intermittent inversion for coating. Each pin was then washed extensively in PBS and placed in 30 μL of S. aureus MZ100 cultured at 10^6 colony forming units (cfu) per mL, according to methods above. The coated pins were then inoculated in 30 mm lengths of 1.5 mm diameter silicone tubing, with closed ends. After incubation for two hours with shaking, the pin was placed in a new tube containing 1 mL PBS. After inverting several times, PBS was aspirated, and replaced with a fresh 1 mL of PBS. The pins were then sonicated at 20 kHz for four cycles of 15 seconds each. Supernatants (100 μL) and dilutions were plated on trypticase soy agar (TSA) plates, incubated for 24 hours at 37° C., and colonies were counted. An assay control included the same steps of the infection model, except that the pin is uncoated pin (i.e., without composition according to the presently disclosed subject matter bound thereto) (“Control”). As representative examples, compositions comprising the amino acid sequences of SEQ ID NOs: 125 and 126 were tested for antimicrobial activity using the in vitro infection model (see, Table 7, “A” & “B”, respectively).

[5] = system: binding between vancomycin and a peptide comprising SEQ ID NO:1; assay: inhibition by Lys-D-Ala-D-Ala of binding between vancomycin and peptide SEQ ID NO:1
Description: As an example, illustrated is the inhibition by Lys-D-Ala-D-Ala of specific binding between vancomycin and a peptide comprising the amino acid sequence of SEQ ID NO:1. To the wells of a 96 well plate coated with streptavidin was added 100 μl of a 0.2 μM solution of biotinylated peptide in buffer-T. After incubation, the wells were blocked by adding 200 μl of a 0.5 mM solution of biotin in buffer-T. The plates were then washed three times with buffer-T. Serial dilutions of Lys-D-Ala-D-Ala were prepared, and added individually to the wells such that Lys-D-Ala-D-Ala ranged in a final concentration of from about 1 μM to about 200 μM (in a volume of 35 μl). Also added to each well was 35 μl of biotinylated vancomycin (20 nM final concentration), and the plate was incubated at 30 minutes for room temperature. The wells were then washed three times with buffer-T, followed by the addition of 100 μl of streptavidin-alkaline phosphatase conjugate (1 mg/ml diluted 1:500 in buffer-T). Following a 30 minute incubation, the wells were washed five times with buffer-T. Added to each well was 100 μl of pNPP, followed by colorimetric detection after 12 minutes at an absorbance of 405 nm.

vancomycin [6] = assay: retention of BODIPY-FL vancomycin on titanium beads with the peptide composition, followed from 45 minutes to 100 hours
vancomycin [7] = assay: titanium beads with 10 µM peptide composition and 200 µM vancomycin, washed, vancomycin eluted with HCl and measured by HPLC

NHTISKNHKKKNKNSNKTR [SEQ ID NO: 119]
# of bacterial colonies ([1]; 2 hour incubation): 0

Lys-D-Ala-D-Ala (peptide)
IC50 (vancomycin [2]): 10 µM | percent inhibition at 100 µM to 200 µM Lys-D-Ala-D-Ala (vancomycin [2]): 100%

119 (NHTISKNHKKKNKNSNKTR) [compound 119]
bacterial growth on the plates [1]: completely inhibited

CLIDMYGVCHNFDGAYDS [compound 1]
EC50 ([3]; synthetic peptides binding to vancomycin, read-out: EC50, binding to glycopeptide antibiotic): < 0.1 µM | EC50 ([3]; synthetic peptides, biotinylated vancomycin, read-out: EC50 (μM) for vancomycin binding): 0.1 µM | binding affinity for gentamycin [4]: lacked significant binding affinity

AUD-AUD-AUD-SSCLIDIYGVCHNFDAY-(miniPEG)2-HKKNNPKKKNKTRGSSK ([Aun][Aun][Aun]SSCLIDIYGVCHNFDAY[miniPEG][miniPEG]HKKNNPKKKNKTRGSSK; disulfide 6-14 (inferred)) [SEQ ID NO: 126]
# of bacterial colonies (CFU) (S. aureus MZ100): <10 CFU

Lys-D-Ala-D-Ala (Lys-[dA]-[dA])
inhibition of binding between vancomycin and peptide ([5]; Lys-D-Ala-D-Ala between 100 μM to 200 μM): ~100% | IC50 ([5]; biotinylated vancomycin 20 nM, read-out: concentration needed to inhibit about 50% of the binding between vancomycin and peptide): ~10 µM

Myr-Ahx-SSCLIDIYGVCHNFDAY-(miniPEG)2-HKKNNPKKKNKTRGSSK ({Myristoyl-Ahx}-SSCLIDIYGVCHNFDAY[miniPEG][miniPEG]HKKNNPKKKNKTRGSSK; disulfide 3-11 (inferred)) [SEQ ID NO: 125]
# of bacterial colonies (CFU) (S. aureus MZ100): 100 CFU

B1: peptide composition comprising SEQ ID NO: 120 (peptide)
peptide: H-SSSCLIDMYGVCHNFDGAYDSSRG[(miniPEG)2]SSHRTNHKKNNPKKKNKTRGSSGK-NH2
modifications: disulfide 4-12 (inferred)
percent of BODIPY-FL vancomycin remaining on the metal surface after 3 hours (vancomycin [6]): 50% | Picomoles vancomycin/cm^2 (picomoles/cm^2) (vancomycin [7]): 61

Reference: US20100098737A1, “METHODS AND COMPOSITIONS FOR DELIVERY OF GLYCOPEPTIDE ANTIBIOTICS TO MEDICAL DEVICE SURFACES” (priority 2008, published 2010)
